Patent publication US10548313B2, “Acetyl-CoA carboxylase modulators” (Monsanto Technology LLC, priority 2013, dated 2020)
Where two headings read alike, the source gives them in different places.

Legend:
[1] = biological target: Ustilago maydis acetyl CoA carboxylase (ACCase) (Mycosarcoma maydis (Ustilago maydis), UniProt A0A0D1DYD5); assay: ACCase enzymatic assay (coupled PK/LDH, NADH OD340); assay type: biochemical
Procedure: Ustilago maydis acetyl CoA carboxylase (ACCase) was cloned, expressed, and purified as described (Weatherly et al, Biochem. J., 2004) and the test compounds were tested in a 96-well plate format. Primary in vitro screening consisted of obtaining dose response data at 100, 33, 10, and 1 μM inhibitor. Actives in the primary screen were re-tested to establish IC50 values.
Direct detection of the conversion of acetyl CoA to malonyl CoA by ACCase was not feasible, but during this process ATP is converted to ADP which allowed for detection through a standard reaction coupling with ADP recycling to the oxidation of NADH. Thus, ACCase activity was measured via kinetic OD340 measurements of the conversion of NADH to NAD in a coupled reaction involving the conversion of phosphoenolpyruvate (PEP) to lactate.
The complete 200 ul reaction mixture contained 52.5 mM HEPES (pH8), 2.625 mM MgCl2, 1 mM ATP, 0.525 mM DTT, 11 mM NaHCO3, 1% DMSO with or without inhibitor, 1× pyruvate kinase/lactate dehydrogenase (PK/LDH), 0.3 mM NADH, 0.5 mM PEP, and 5 μg ACCase. The reactions were incubated at 30° C. for 10 minutes and then initiated by the addition of 0.33 mM acetyl CoA. The initiated reactions were read immediately via plate reader at OD340 and kinetic readings were acquired every 20 s for 15 minutes while keeping the temperature at 30° C.
A slope of the kinetic curve was determined by using the 2 to 7 minute data which was then calculated as percent inhibition relative to the no inhibitor control.
The primary screens were conducted in duplicate and the IC50's conducted in triplicate. Averages were reported along with standard deviation calculation to generate error bars.
Each plate contained its own controls and consisted of a DMSO only control, 5-fold titration series of soraphen from 2 μM to 3.2 nM, and an ADP coupled reaction control.

Saccharomyces cerevisiae = assay: Yeast growth inhibition assay; assay type: cell-based; settings: for inhibition at 3.7 µM: read-out: S. cerevisiae % growth inhibition at 48 hours, 3.7 μM; for inhibition at 11.1 µM: read-out: S. cerevisiae % growth inhibition at 48 hours, 11.1 μM; for inhibition at 33.3 µM: read-out: S. cerevisiae % growth inhibition at 48 hours, 33.3 μM; for inhibition at 100 µM: read-out: S. cerevisiae % growth inhibition at 48 hours, 100 μM
Procedure: Yeast cells (Ade2 strain) were grown in liquid YPD (1% yeast extract, 2% peptone, 2% dextrose) for 16 hours at 30° C. from previously sub-cultured plates of Saccharomyces cerevisiae. The OD600 of the overnight culture was checked via spectrophotometer and diluted to a concentration of 2×10^4 cells/ml.
Chemistry stocks were dissolved in DMSO to a concentration of 10 mM. Chemistry stocks were further diluted in a 96-well stock plate to obtain final concentrations of 100, 33, 10 and 1 μM in 1% DMSO. The final concentrations of the soraphen positive controls were 400, 40, and 3.2 nM. The negative controls on each plate included a background subtraction control containing yeast and 1% DMSO (without chemistry) and a second contamination control containing YPD (with no yeast) and 1% DMSO (without chemistry).
98 μl liquid YPD was added to 2 μl diluted stock of DMSO per well and mixed thoroughly. After mixing, 100 μl of the diluted yeast solution was added to bring the final yeast concentration to 1×10^4 cells/ml or 2000 cells per well. An initial spectrophotometric reading at OD600 was conducted on the entire plate and served as the 0 hour time point used to subtract any background. […] […] […] All experiments were conducted in triplicate. Averages were reported along with standard deviation calculation to generate error bars. Each plate contained its own controls and consisted of inoculated+DMSO, non-inoculated+DMSO, and a titration series of soraphen at 400, 40, and 3.2 nM.

[2] = tested on: Collectotrichum graminicola; assay: Fungal growth inhibition assay, Collectotrichum graminicola; assay type: cell-based; settings: Colletotrichum graminicola, 48 hours, read-out: C. graminicola % growth inhibition at 48 hours
Procedure: (§1) Spores were isolated from previously sub-cultured plates of Botrytis cinerea, Phytophthora capsici, Fusarium moniliforme, Fusarium viguliforme, Collectotrichum graminicola, and Diplodia maydis. All spores were filtered and collected in a sterile glass bowl to isolate the spores from the mycelia. The isolation and sub-culture plate condition for each pathogen is described below.
Spore isolation for C. graminicola: A 1-2 week old oatmeal agar (pre-mix) plate was removed from 26° C. incubator with a light/dark 12 hour cycle and the mycelia were treated with 10-15 ml of filter sterilized distilled water. The mycelia were scraped to re-suspend the spores. The spores were then collected in a sterile filter bowl containing a piece of sterile cheesecloth and poured into a conical tube.
(§2) After spore isolation, pathogen spores were counted on a hemocytometer to calculate the spores/ml. In 17% V8 liquid media containing 3 g/L CaCO3, isolated spores were diluted to individual concentrations based on the growth curves at 48 hours of each pathogen. The spore concentrations for each pathogen were as follows: B. cinerea—10,000 sp/ml; P. capsici—300 sp/ml; F. monliforme—500 sp/ml; F. virguliforme—500 sp/ml; C. graminicola—3,000 sp/ml; and D. maydis—3,000 sp/ml.
(§3) Chemistry stocks were dissolved in DMSO at 2.5 mg/ml. Chemistry was diluted in a 96-well stock plate in five-fold dilutions to obtain a final concentration of 50, 10, and 2 ppm in vitro. The final concentration of the positive control after the five-fold dilutions was as follows: soraphen—0.5, 0.1, and 0.02 ppm. Negative controls on each plate included 2% DMSO, water containing spores and media, and a blank for background subtraction.
(§4) In a 96-well plate the spore solution, chemistries, and controls were combined to make the final solution concentrations mentioned above. Upon addition of the chemistry, an OD600 reading was done to assess chemical precipitation. The 96-well plates were incubated in plastic tubs containing wet paper towels under the following conditions, 25° C. in the dark for P. capsici and B. cinerea or 26° C. with light/dark cycle for C. graminicola, D. maydis, F. virguliforme, F. monliforme. Plate readings were repeated at 24 and 48 hrs. Visual ratings were performed at 24 and 48 hrs to check for precipitation and confirm efficacy. Visual and OD600 ratings of the chemistry at 48 hours were compared to the 2% DMSO control to determine the percent of pathogen growth inhibition.

Diplodia maydis = assay: Fungal growth inhibition assay, Diplodia maydis; assay type: cell-based; settings: 48 hours, read-out: D. maydis % growth inhibition at 48 hours
Procedure: as §1
Spore isolation for D. maydis: A 3-4 week old PDA (pre-mix) plate was removed from 26° C. incubator with a light/dark 12 hour cycle and the mycelia were treated with 6-7 ml of sterile distilled water, scraped into a sterile petri dish, and smashed to open the pycnidia. The spores were then collected in a sterile filter bowl containing a fluted piece of filter paper and poured into a conical tube.
as §2, §3, §4

Phytophthora capsici = assay: Fungal growth inhibition assay, Phytophthora capsici; assay type: cell-based; settings: 48 hours, read-out: P. capsici % growth inhibition at 48 hours
Excerpt: as §1
Spore isolation for P. capsici: Three to five days prior to the assay a 2-3 week old V8 (17%)+CaCO3 (3 g/L)+20 g agar plate was removed from a dark 25° C. incubator and cut up into small chunks. One plate was separated into two deep well plates and rinsed with sterile distilled water three times. The cut up pieces were incubated under light in a sterile filter hood with 25 ml of sterile distilled water. On the day of the assay the water was removed and 5-7 ml of fresh sterile distilled water was added. One plate was incubated at 4° C. for 45-60 minutes and then placed at room temperature for about 45-60 minutes. The spores were collected in a sterile filter bowl containing a fluted piece of filter paper. The spores were vortexed in a conical tube for 30-60 seconds to remove the flagella of the zoospores after isolation.
as §2, §3, §4

Botrytis cinerea = assay: Fungal growth inhibition assay, Botrytis cinerea; assay type: cell-based; settings: 48 hours, read-out: B. cinerea % growth inhibition at 48 hours
Excerpt: as §1
Spore isolation for B. cinerea: A 2-3 week old V8 (17%)+CaCO3 (3 g/L)+20 g agar plate was removed from room temperature and the mycelia were treated with 5-10 ml of filter sterilized Triton X 100 (.05%). The mycelia were scraped to re-suspend the spores. The spores were then collected in a sterile filter bowl containing a fluted piece of filter paper and poured into a conical tube.
as §2, §3, §4

[3] = Table 1A, values marked a are a result of two or more experiments, read-out: ACCase Inhibitory Activity IC50

Sequence of Ustilago maydis acetyl CoA carboxylase (ACCase) (A0A0D1DYD5 1-2185): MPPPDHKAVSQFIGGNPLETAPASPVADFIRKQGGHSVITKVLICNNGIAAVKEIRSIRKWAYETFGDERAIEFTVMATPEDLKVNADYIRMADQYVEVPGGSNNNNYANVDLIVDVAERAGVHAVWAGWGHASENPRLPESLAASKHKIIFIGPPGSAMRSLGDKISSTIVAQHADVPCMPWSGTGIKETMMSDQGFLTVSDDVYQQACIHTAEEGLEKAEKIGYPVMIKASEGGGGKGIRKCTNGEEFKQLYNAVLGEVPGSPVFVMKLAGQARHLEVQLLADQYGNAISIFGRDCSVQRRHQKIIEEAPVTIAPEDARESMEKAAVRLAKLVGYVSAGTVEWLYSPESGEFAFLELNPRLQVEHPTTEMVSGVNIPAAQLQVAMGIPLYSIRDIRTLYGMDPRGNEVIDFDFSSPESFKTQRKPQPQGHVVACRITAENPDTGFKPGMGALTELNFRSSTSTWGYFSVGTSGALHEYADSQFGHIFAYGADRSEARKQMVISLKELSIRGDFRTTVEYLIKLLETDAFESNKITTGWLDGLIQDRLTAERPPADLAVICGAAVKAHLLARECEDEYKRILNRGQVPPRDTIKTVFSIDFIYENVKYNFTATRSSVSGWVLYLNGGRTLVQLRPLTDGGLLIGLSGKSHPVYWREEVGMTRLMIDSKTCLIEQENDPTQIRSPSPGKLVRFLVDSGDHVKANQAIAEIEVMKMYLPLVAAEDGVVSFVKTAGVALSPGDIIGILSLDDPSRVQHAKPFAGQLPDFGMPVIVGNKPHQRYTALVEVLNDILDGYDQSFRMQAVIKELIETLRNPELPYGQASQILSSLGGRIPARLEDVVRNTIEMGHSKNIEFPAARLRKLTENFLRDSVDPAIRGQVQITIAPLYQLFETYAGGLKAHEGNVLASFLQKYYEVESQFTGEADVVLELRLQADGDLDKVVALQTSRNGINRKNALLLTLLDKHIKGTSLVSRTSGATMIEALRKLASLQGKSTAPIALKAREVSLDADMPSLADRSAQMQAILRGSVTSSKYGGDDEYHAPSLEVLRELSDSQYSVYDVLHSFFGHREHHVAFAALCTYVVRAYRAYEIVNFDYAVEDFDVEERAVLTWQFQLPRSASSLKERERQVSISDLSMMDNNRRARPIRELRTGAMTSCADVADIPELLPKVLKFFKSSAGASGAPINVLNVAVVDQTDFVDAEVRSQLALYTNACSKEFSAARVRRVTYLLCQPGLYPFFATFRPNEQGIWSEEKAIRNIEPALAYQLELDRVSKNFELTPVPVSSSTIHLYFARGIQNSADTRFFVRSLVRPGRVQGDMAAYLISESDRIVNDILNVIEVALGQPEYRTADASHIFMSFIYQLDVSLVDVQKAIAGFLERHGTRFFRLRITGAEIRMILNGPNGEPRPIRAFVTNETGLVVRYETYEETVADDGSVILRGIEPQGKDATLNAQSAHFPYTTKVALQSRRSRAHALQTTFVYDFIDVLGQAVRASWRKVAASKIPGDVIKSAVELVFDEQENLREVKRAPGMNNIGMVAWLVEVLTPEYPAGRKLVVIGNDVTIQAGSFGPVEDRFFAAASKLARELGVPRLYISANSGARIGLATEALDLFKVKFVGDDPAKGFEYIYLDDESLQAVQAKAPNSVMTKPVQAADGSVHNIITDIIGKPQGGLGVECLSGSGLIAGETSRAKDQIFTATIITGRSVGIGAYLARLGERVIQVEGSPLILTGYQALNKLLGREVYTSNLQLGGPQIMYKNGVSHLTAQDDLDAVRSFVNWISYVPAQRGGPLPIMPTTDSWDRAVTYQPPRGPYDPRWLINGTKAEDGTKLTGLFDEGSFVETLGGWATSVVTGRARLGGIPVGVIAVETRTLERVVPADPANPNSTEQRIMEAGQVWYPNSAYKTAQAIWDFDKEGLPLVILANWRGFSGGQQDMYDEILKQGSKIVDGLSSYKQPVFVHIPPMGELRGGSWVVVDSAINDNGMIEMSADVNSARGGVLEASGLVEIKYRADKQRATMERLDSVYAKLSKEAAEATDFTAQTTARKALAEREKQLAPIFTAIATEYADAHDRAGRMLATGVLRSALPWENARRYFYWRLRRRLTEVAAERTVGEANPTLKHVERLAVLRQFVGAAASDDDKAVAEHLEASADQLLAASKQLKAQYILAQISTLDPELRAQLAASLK

SMILES	IC50 ([1]; Table 1B, racemate vs single enantiomers, read-out: ACCase Inhibitory Activity of Racemic Mixtures and Single Enantiomers IC50)	inhibition at 3.7 µM (Saccharomyces cerevisiae)	inhibition at 11.1 µM (Saccharomyces cerevisiae)	inhibition at 33.3 µM (Saccharomyces cerevisiae)	inhibition at 100 µM (Saccharomyces cerevisiae)	inhibition at 2 ppm [2]	inhibition at 10 ppm [2]	inhibition at 50 ppm [2]	IC50 [1, 3]	inhibition at 2 ppm (Diplodia maydis)	inhibition at 10 ppm (Diplodia maydis)	inhibition at 50 ppm (Diplodia maydis)	inhibition at 2 ppm (Phytophthora capsici)	inhibition at 10 ppm (Phytophthora capsici)	inhibition at 50 ppm (Phytophthora capsici)	inhibition at 2 ppm (Botrytis cinerea; 2 ppm)	inhibition at 10 ppm (Botrytis cinerea; 10 ppm)
N#Cc1c(C(F)(F)F)cc(-c2cccs2)nc1SC(C(=O)O)c1ccccc1 (racemic) [Formula Ia-ii, 2-((3-cyano-6-(thiophen-2-yl)-4-(trifluoromethyl)pyridin-2-yl)thio)-2-phenylacetic acid]	2020 nM	7%	0%	12%	51%												
N#Cc1c(-c2ccc(Cl)cc2)cc(-c2cccs2)nc1SC(C(=O)O)c1ccccc1 (stereo not shown) [Formula Ia-i, 2-((4-(4-chlorophenyl)-3-cyano-6-(thiophen-2-yl)pyridin-2-yl)thio)-2-phenylacetic acid]						28%	72%	92%	370 nM	3%	57%	65%					
N#Cc1c(-c2ccccc2)cc(-c2cccs2)nc1SC(C(=O)O)c1ccccc1 (stereo not shown) [Formula Ia-iv, 2-((3-cyano-4-phenyl-6-(thiophen-2-yl)pyridin-2-yl)thio)-2-phenylacetic acid]						5%	41%	76%	492 nM				0%	11%	90%		
COc1ccc(-c2cc(C(F)(F)F)c(C#N)c(SC(C(=O)O)c3ccccc3)n2)cc1OC (stereo not shown) [Formula Ia-ix, 2-((3-cyano-6-(3,4-dimethoxyphenyl)-4-(trifluoromethyl)pyridin-2-yl)thio)-2-phenylacetic acid]						5%	17%	72%	1600 nM	32%	37%	70%	10%	39%	34%		
COc1ccc(-c2cc(-c3cccs3)nc(SC(C(=O)O)c3ccccc3)c2C#N)cc1 (stereo not shown) [Formula Ia-v, 2-((3-cyano-4-(4-methoxyphenyl)-6-(thiophen-2-yl)pyridin-2-yl)thio)-2-phenylacetic acid]						0%	32%	79%	119 nM	0%	61%	52%					
N#Cc1c(SC(C(=O)O)c2ccccc2)nc(-c2cccs2)c2c1CCCC2 (stereo not shown) [Formula Ia-vii, 2-((4-cyano-1-(thiophen-2-yl)-5,6,7,8-tetrahydroisoquinolin-3-yl)thio)-2-phenylacetic acid]						11%	19%	71%	3800 nM	11%	46%	64%	0%	9%	100%		
COc1ccc(-c2cc(C(F)(F)F)c(C#N)c(SC(C(=O)O)c3ccccc3)n2)c(OC)c1 (stereo not shown) [Formula Ia-viii, 2-((3-cyano-6-(2,4-dimethoxyphenyl)-4-(trifluoromethyl)pyridin-2-yl)thio)-2-phenylacetic acid]		6%	23%	62%	100%				1720 nM								
N#Cc1c(SC(C(=O)O)c2ccccc2)nc2c(c1-c1cccs1)CCCC2 (stereo not shown) [Formula Ia-xiii, 2-((3-cyano-4-(thiophen-2-yl)-5,6,7,8-tetrahydroquinolin-2-yl)thio)-2-phenylacetic acid]									274 nM	20%	13%	40%					
COc1ccc(-c2cc(-c3ccc[s+]3[O-])nc(OC(C(=O)O)c3ccccc3)c2C#N)cc1 (stereo not shown) [Formula Ia-xxviii, 2-((3-cyano-4-(4-methoxyphenyl)-6-(1-oxidothiophen-2-yl)pyridin-2-yl)oxy)-2-phenylacetic acid]									196 nM							14%	27%
